Test system: LNCaP tumour-bearing NSG mice
Assay: PET/CT in vivo biodistribution and tumour uptake in subcutaneous LNCaP prostate cancer xenograft model
Details: n = 4; for Bone (SUV mean) / Brain (SUV mean) / Colon (SUV mean) / Gall bladder (SUV mean) / Heart (SUV mean) / Kidney (SUV mean) / Liver (SUV mean) / Lung (SUV mean) / Muscle (SUV mean) / Salivary gland (SUV mean) / Small instestine (SUV mean): LNCaP NSG male mice, i.v., PET/CT; for ratio between tumour and muscle (tumour SUV max/muscle SUV mean) / uptake in the tumour expressed as SUV max: LNCaP tumour, NSG mice
Procedure: The uptake of [^18F]F-PSMA-1007 and [^18F]F-PSMA-617-NODA ([^18F]1) was compared in vivo in a xenograft model of human prostate cancer obtained using LNCaP cells which are PSMA positive, as confirmed by real time PCR-analysis (Additional file 1: S69A). LNCaP tumour-bearing NSG mice were injected i.v. with either [^18F]F-PSMA-1007 or [^18F]F-PSMA-617-NODA (~ 3.8 MBq/mouse, ~ 20 pmol for [^18F]F-PSMA-1007 and ~ 50 pmol [^18F]1). Radiotracer uptake was assessed after 10, 60 and 120 min post injection by whole-body PET/CT acquisitions.
Total body biodistribution of [^18F]F-PSMA-1007, [^18F]F-PSMA-617-NODA and [^18F]F-PSMA-617-RESCA was evaluated in vivo using imaging PET/CT. [^18F]F-PSMA-617-NODA uptake was compared to that of the [^18F]F-PSMA-1007 in a PSMA positive prostate tumour xenograft model (LNCaP). [^18F]F-PSMA-617-NODA and [^18F]F-PSMA-617-RESCA uptake were also evaluated using an orthotopic glioma model (Gli36ΔEGFR).
Animal experiments were carried out in compliance with institutional guidelines for the care and the use of experimental animals, which have been authorized by the Italian Ministry of Health (n° 378/2019-PR and 817/2021-PR). The animals were housed at constant temperature (23 °C) and relative humidity (40%) under a regular light/dark cycle with food and water available ad libitum. Seven to eight weeks old male NSG mice (Charles River Laboratories Italia s.r.l., Italy) were subcutaneously inoculated in the right flank with 5 × 10^6 of PSMA‐positive human prostate cancer cells (LNCaP) suspended in matrigel (1: 1, total volume 200 ul). The growth tumour was monitored periodically with calliper and tumour volume was calculated using the following formula: […]
When the tumour volume was about 230.8 ± 60.3 mm^3 (approximately 15 days after tumour cells inoculation), 4 animals performed an in vivo biodistribution of [^18F]F-PSMA-1007 and [^18F]F-PSMA-617-NODA, on successive but non-consecutive days, using PET/CT.
Mice were injected into a tail vein with 3.8 ± 0.1 MBq of [^18F]F-PSMA-1007, 4.0 ± 0.2 MBq of [^18F]F-PSMA-617-NODA ([^18F]1) and 3.8 ± 0.1 MBq of [^18F]F-PSMA-617-RESCA ([^18F]2), respectively.
Total body PET/CT acquisitions were performed using PET/CT tomographs dedicated to small animals, X-ß-CUBE (Molecubes, Gent, Belgium) after 10, 60 and 120 min from tracer injection. Each acquisition lasted 30 min and mice were maintained anesthetized (4% isoflurane in induction and 2% in maintenance in air) during acquisition.
Image quantification analysis was performed with PMOD 4.105 software (Zurich, Switzerland). Volumes of interest (VOIs) were drawn on peripheral organs (tumour, thoracic muscle, heart, liver, kidney, salivary glands, lung, small intestine, colon, bone, gall bladder) and on the healthy brain using CT images. For the glioma model, PET/CT images were co-registered to MRI images and two different VOIs were defined: (1) a control VOI covering the healthy left striatum (volume 4 mm^3) was drawn on the axial MR images, adjusted on the other imaging planes and then copied on the PET images of each mouse; (2) a second glioma-covering VOI was drawn in the tumour-affected brain hemisphere and centered on mice lesions.
For quantification, Standardized Uptake Value (SUV) was calculated according to the formula:
SUV = organ concentration activity [MBq/g]/(injected activity [MBq]/animal weight [g]).
The data were expressed as standardized-uptake-values (SUVmean and SUVmax) and as tumour-to-muscle (T/M) and tumour-to-blood (T/B) ratio in PCa model and as tumour-to-contralateral (T/Cl) ratio in glioma model.

## O=C(O)CCC(NC(=O)NC(CCCCNC(=O)C(Cc1ccc2ccccc2c1)NC(=O)C1CCC(CNC(=O)CCCN2CCN(CC(=O)O)CCN(CC(=O)O)CC2)CC1)C(=O)O)C(=O)O.[18F][Al] [[^18F]F-PSMA-617-NODA, (((S)-5-((S)-2-((1R,4S)-4-((4-(4,7-bis(carboxymethyl)-1,4,7-triazonan-1-yl)butanamido)methyl)cyclohexane-1-carboxamido)-3-(naphthalen-2-yl)propanamido)-1-carboxypentyl)carbamoyl)-L-glutamic acid [^18F] aluminium fluoride]
10 min p.i.
  Bone (SUV mean): 0.20 ± 0.12
  Brain (SUV mean): 0.05 ± 0.003
  Colon (SUV mean): 0.30 ± 0.08
  Gall bladder (SUV mean): 0.27 ± 0.05
  Heart (SUV mean): 0.30 ± 0.03
  Kidney (SUV mean): 8.50 ± 1.40
  Liver (SUV mean): 0.22 ± 0.02
  Lung (SUV mean): 0.31 ± 0.04
  Muscle (SUV mean): 0.15 ± 0.05
  Salivary gland (SUV mean): 0.49 ± 0.05
  Small instestine (SUV mean): 0.23 ± 0.05
60 min p.i.
  Bone (SUV mean): 0.23 ± 0.11
  Brain (SUV mean): 0.03 ± 0.01
  Colon (SUV mean): 0.17 ± 0.02
  Gall bladder (SUV mean): 0.14 ± 0.07
  Heart (SUV mean): 0.09 ± 0.02
  Kidney (SUV mean): 6.39 ± 2.14
  Liver (SUV mean): 0.10 ± 0.02
  Lung (SUV mean): 0.14 ± 0.01
  Muscle (SUV mean): 0.04 ± 0.01
  Salivary gland (SUV mean): 0.18 ± 0.08
  Small instestine (SUV mean): 0.16 ± 0.05
  ratio between tumour and muscle (tumour SUV max/muscle SUV mean): 30.29 ± 10.46
  uptake in the tumour expressed as SUV max: 1.11 ± 0.24
120 min p.i.
  Bone (SUV mean): 0.25 ± 0.12
  Brain (SUV mean): 0.02 ± 0.01
  Colon (SUV mean): 0.13 ± 0.06
  Gall bladder (SUV mean): 0.03 ± 0.02
  Heart (SUV mean): 0.03 ± 0.01
  Kidney (SUV mean): 2.43 ± 1.24
  Liver (SUV mean): 0.04 ± 0.01
  Lung (SUV mean): 0.04 ± 0.01
  Muscle (SUV mean): 0.02 ± 0.01
  Salivary gland (SUV mean): 0.04 ± 0.02
  Small instestine (SUV mean): 0.06 ± 0.03
  ratio between tumour and muscle (tumour SUV max/muscle SUV mean): 83.53 ± 48.71
  uptake in the tumour expressed as SUV max: 0.94 ± 0.12
